Legend:
BT-474 Tam1 [1] = assay: drug sensitivity score (DSS) (DSS (dimensionless)); higher = more sensitive; extreme values may be limits of the assay; conditions: 4-OH-tamoxifen in medium 1 µM; 72 h
Method in brief: (§1)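 After seeding into 384-well plates with library drugs at five concentrations spanning a 10 000-fold range, breast cancer cell lines and their resistant derivatives were incubated 72 h at 37 °C. Resistant lines received medium with 1 μM of the selecting drug. CellTiter-Glo signal was read on a PHERAstar and scaled to vehicle-only and positive controls. Drug sensitivity score, relative IC50 (the curve midpoint) and top-dose inhibition came from logistic fits run in the Breeze pipeline.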

BT-474 Tam2 [2] = assay: as above; conditions: 4-OH-tamoxifen in medium 1 µM; 72 h
Method in brief: as §1

BT-474 [3] = assay: as above; conditions: 72 h
Method in brief: as §1

MCF-7 Tam1 [4] = assay: as above; conditions: 4-OH-tamoxifen in medium 1 µM; 72 h
Method in brief: as §1

MCF-7 [5] = assay: as above; conditions: 72 h
Method in brief: as §1

T-47D Tam1 [6] = assay: as above; conditions: 4-OH-tamoxifen in medium 1 µM; 72 h
Method in brief: as §1

T-47D Tam2 [7] = assay: as above; conditions: 4-OH-tamoxifen in medium 1 µM; 72 h
Method in brief: as §1

T-47D [8] = assay: as above; conditions: 72 h
Method in brief: as §1

ZR-75-1 Tam1 [9] = assay: as above; conditions: 4-OH-tamoxifen in medium 1 µM; 72 h
Method in brief: as §1

ZR-75-1 Tam2 [10] = assay: as above; conditions: 4-OH-tamoxifen in medium 1 µM; 72 h
Method in brief: as §1

ZR-75-1 [11] = assay: as above; conditions: 72 h
Method in brief: as §1

BT-474 Tam1 [12] = assay: relative IC50 (midpoint of fitted logistic curve, plateau may be below 50% inhibition; CellTiter-Glo viability); higher = less potent; conditions: 4-OH-tamoxifen in medium 1 µM; 72 h
Method in brief: as §1

BT-474 Tam2 [13] = assay: as above; conditions: 4-OH-tamoxifen in medium 1 µM; 72 h
Method in brief: as §1

BT-474 [14] = assay: as above; conditions: 72 h
Method in brief: as §1

MCF-7 Tam1 [15] = assay: as above; conditions: 4-OH-tamoxifen in medium 1 µM; 72 h
Method in brief: as §1

MCF-7 [16] = assay: as above; conditions: 72 h
Method in brief: as §1

T-47D Tam1 [17] = assay: as above; conditions: 4-OH-tamoxifen in medium 1 µM; 72 h
Method in brief: as §1

T-47D Tam2 [18] = assay: as above; conditions: 4-OH-tamoxifen in medium 1 µM; 72 h
Method in brief: as §1

T-47D [19] = assay: as above; conditions: 72 h
Method in brief: as §1

ZR-75-1 Tam1 [20] = assay: as above; conditions: 4-OH-tamoxifen in medium 1 µM; 72 h
Method in brief: as §1

ZR-75-1 Tam2 [21] = assay: as above; conditions: 4-OH-tamoxifen in medium 1 µM; 72 h
Method in brief: as §1

ZR-75-1 [22] = assay: as above; conditions: 72 h
Method in brief: as §1

relative IC50 (BT-474 Tam1 [12]) [nM]	relative IC50 (BT-474 Tam2 [13]) [nM]	relative IC50 (BT-474 [14]; 4-OH-tamoxifen in medium 0 µM) [nM]	relative IC50 (BT-474 [14]; 4-OH-tamoxifen in medium 1 µM) [nM]	relative IC50 (MCF-7 Tam1 [15]) [nM]	relative IC50 (MCF-7 [16]; 4-OH-tamoxifen in medium 0 µM) [nM]	relative IC50 (MCF-7 [16]; 4-OH-tamoxifen in medium 1 µM) [nM]	relative IC50 (T-47D Tam1 [17]) [nM]	relative IC50 (T-47D Tam2 [18]) [nM]	relative IC50 (T-47D [19]; 4-OH-tamoxifen in medium 0 µM) [nM]	relative IC50 (T-47D [19]; 4-OH-tamoxifen in medium 1 µM) [nM]	SMILES	drug sensitivity score (BT-474 Tam1 [1])	drug sensitivity score (BT-474 Tam2 [2])	drug sensitivity score (BT-474 [3]; 4-OH-tamoxifen in medium 0 µM)	drug sensitivity score (BT-474 [3]; 4-OH-tamoxifen in medium 1 µM)	drug sensitivity score (MCF-7 Tam1 [4])	drug sensitivity score (MCF-7 [5]; 4-OH-tamoxifen in medium 0 µM)	drug sensitivity score (MCF-7 [5]; 4-OH-tamoxifen in medium 1 µM)	drug sensitivity score (T-47D Tam1 [6])	drug sensitivity score (T-47D Tam2 [7])	drug sensitivity score (T-47D [8]; 4-OH-tamoxifen in medium 0 µM)	drug sensitivity score (T-47D [8]; 4-OH-tamoxifen in medium 1 µM)	drug sensitivity score (ZR-75-1 Tam1 [9])	drug sensitivity score (ZR-75-1 Tam2 [10])	drug sensitivity score (ZR-75-1 [11]; 4-OH-tamoxifen in medium 0 µM)	drug sensitivity score (ZR-75-1 [11]; 4-OH-tamoxifen in medium 1 µM)	relative IC50 (ZR-75-1 Tam1 [20]) [nM]	relative IC50 (ZR-75-1 Tam2 [21]) [nM]	relative IC50 (ZR-75-1 [22]; 4-OH-tamoxifen in medium 0 µM) [nM]	relative IC50 (ZR-75-1 [22]; 4-OH-tamoxifen in medium 1 µM) [nM]
202	182	359	283	582	201	419	148	472	713	884	CS(=O)(=O)N1CCN(Cc2cc3nc(-c4cccc5[nH]ncc45)nc(N4CCOCC4)c3s2)CC1 [Pictilisib (GDC-0941)]	17.4	17.2	10.2	16.4	8.69	15.4	12.8	14.7	9.95	9.41	9.59	11.3	12.1	12.7	9.23	514	415	208	453
> 10000	> 10000	> 10000	> 10000	> 10000	> 10000	> 10000	> 10000	> 10000	> 10000	> 10000	O=C(CCBr)N1CCN(C(=O)CCBr)CC1 [Pipobroman]	0	0	0	0	0	0	0	0	0	0	0	0	0	0	0	> 10000	> 10000	> 10000	> 10000
> 2500	> 2500	> 2500	> 2500	> 2500	> 2500	> 2500	> 2500	> 2500	> 2500	> 2500	c1cc(CN2CCCNCCNCCCNCC2)ccc1CN1CCCNCCNCCCNCC1 [Plerixafor]	0	0	0	0	0	0	0	0	0	0.403	0	0	0	0	0	> 2500	> 2500	> 2500	> 2500
632	495	357	542	318	401	150	36.3	57	84.6	110	CO[C@H](C(=O)[C@@H](O)[C@@H](C)O)[C@@H]1Cc2cc3cc(O[C@H]4C[C@@H](O[C@@H]5C[C@@H](O)[C@H](O)[C@@H](C)O5)[C@H](O)[C@@H](C)O4)c(C)c(O)c3c(O)c2C(=O)[C@H]1O[C@H]1C[C@@H](O[C@@H]2C[C@@H](O)[C@@H](O[C@@H]3C[C@](C)(O)[C@H](O)[C@@H](C)O3)[C@@H](C)O2)[C@H](O)[C@@H](C)O1 [Plicamycin  (Mithramycin A)]	13.7	14.9	11.9	14.3	14.1	14.9	20.1	22	17.4	18.4	13.2	22.1	23.6	21.5	19	58.6	64.5	45.3	66.5
> 10000	> 10000	> 10000	> 10000	> 10000	> 10000	> 10000	> 10000	> 10000	> 10000	> 10000	C[C@]12C=CC(=O)C=C1CC[C@@H]1[C@@H]2C(=O)C[C@@]2(C)[C@H]1CC[C@]2(O)C(=O)CO [Prednisone]	0	0	0	0	0	0	0	0	0	0	0	0	0	0	0	> 10000	> 10000	> 10000	> 10000
> 10000	> 10000	> 10000	> 10000	> 10000	> 10000	> 10000	> 10000	> 10000	> 10000	> 10000	CNNCc1ccc(C(=O)NC(C)C)cc1 [Procarbazine]	0	0	0	0	0	0	0	0	0	0	0	0	0	0	0	> 10000	> 10000	> 10000	> 10000
82.9	420		83.7	1200	38.2	134	362	600	451		CC(C)(C)c1cnc(CSc2cnc(NC(=O)C3CCNCC3)s2)o1 [SNS-032]	23.8	14.4	0.78	15.8	2.67	20	11.8	8.4	4.33	7.36	1.24	9.78	11.1	12.3	9.55	308	297	243	315

From the supplement of paper PMC4932681
